From the NIST ThermoML archive (doi:10.1016/j.fluid.2011.02.008)
Several values for one entry are separate records, joined by “and”; a condition that tells them apart may be missing. Equal entries are not always repeated. ± gives the expanded uncertainty stated by the source.

Conditions: Liquid, Closed cell (Static) method

SMILES: O=S=O [sulfur dioxide]
- vapor or sublimation pressure (343.15 K): 1479 ± 5 kPa and 1469 ± 24 kPa
- vapor or sublimation pressure (373.15 K): 2883 ± 9 kPa
- vapor or sublimation pressure (413.15 K): 5836 ± 18 kPa and 5978 ± 32 kPa
